The values below come from paper PMC9329053, “Discovery of Novel Tyrosinase Inhibitors From Marine Cyanobacteria” (Frontiers in Microbiology, 2022).

Like-named read-outs stand apart in the source and are kept apart here.

In series [1] the target is Mushroom tyrosinase. Conditions: cited from earlier work.
Series [2] concerns the target T1, mushroom tyrosinase (A. bisporus) (Agaricus bisporus, UniProt C7FF04).
T1 construct: purchased Sigma-Aldrich and Worthington Biochemical Corp
Description: Dynamic dose-dependent tyrosinase inhibition study. The format is biochemical. As for the experimental part: Respectively, the final concentration gradient of the test samples was set to be 200, 150, 75, 25, 5, and 1 μM. For OD measurements, the plate was read in the dynamic mode for 60 min with measurements recorded every minute, using the SpectraMax M3 plate reader at 475 nm and 490 nm. Forty-five seconds of shaking was also performed before first reading to retain method consistency.

Details of series [3]: method as in Malla and Sommer, 2014; Kang et al., 2020. Particulars: ref Malla and Sommer, 2014; Kang et al., 2020; cited from earlier work.
Series [4] has as its target T2, mushroom tyrosinase (Agaricus bisporus, UniProt C7FF04).
T2 construct: purchased Sigma-Aldrich and Worthington Biochemical Corp
Description: Kinetic analysis of tyrosinase and inhibitors (Lineweaver-Burk). The format is biochemical, A. bisporus. The procedure:
The Lineweaver–Burk plot was generated using Graphpad Prism 9.2.0. Experiments were performed in triplicate.
A kinetic study was performed to better understand the tyrosinase inhibitory properties of ScyM. For this kinetic mode analysis, varying concentrations of substrate and inhibitor were used in the assays in order to generate Lineweaver–Burk plots. […] The Lineweaver–Burk plot (Figures 6A,B), also known as the double reciprocal plot, is commonly used to determine the mechanism of how an inhibitor is inhibiting an enzyme. […] Two inhibition parameters, the Michaelis–Menten constant (Km) and maximal velocity (Vmax), are also visualized in this plot. […] The apparent Km and Vmax values were calculated as an average of triplicate measurements and are provided with standard deviations (see Table 2).

In series [5] the test system is NCI-H460 human lung carcinoma cell line. Description: MTT cytotoxicity assay. Format: cell-based. Conditions: H460 human lung cancer cells; no significant effect at concentration as high as 254 μM. The procedure: The cytotoxicity assay was performed using a protocol previously published ([Yu H.-B. et al., 2019]; [Leber et al., 2020]). Briefly, the MTT staining method was used to determine the cytotoxicity of compounds of interest using the NCI-H460 human lung carcinoma cell line purchased from ATCC (Manassas, VA, United States). The cells were grown in flasks and then seeded into wells at 3.33 × 10^4 cells/ml of Roswell Park Memorial Institute (RPMI-1640) medium with standard fetal bovine serum (FBS), leading to 180 μl/well. The cells were then pre-incubated for 24 h at 37°C in 96-well plates before drug was added. Thereafter, with addition of diluted compounds of interest dissolved in DMSO, plates were incubated for an additional 48 h and then stained with MTT (thiazolyl blue tetrazolium bromide 98%; Sigma-Aldrich) for 25 min, after which the optical densities (OD) were recorded at 630 and 570 nm for each well on a SpectraMax M3 plate reader (Molecular Devices, San Jose, CA, United States). Doxorubicin and 1% DMSO in RPMI-1640 without fetal bovine serum were used as positive and negative controls, respectively. Polyethylene glycol (PEG) was used to facilitate dissolution of compounds with limited solubility.

The target in series [6] is T3, tyrosinase (Agaricus bisporus, UniProt C7FF04).
T3 construct: purchased Sigma-Aldrich and Worthington Biochemical Corp
T3 sequence (C7FF04 1-392): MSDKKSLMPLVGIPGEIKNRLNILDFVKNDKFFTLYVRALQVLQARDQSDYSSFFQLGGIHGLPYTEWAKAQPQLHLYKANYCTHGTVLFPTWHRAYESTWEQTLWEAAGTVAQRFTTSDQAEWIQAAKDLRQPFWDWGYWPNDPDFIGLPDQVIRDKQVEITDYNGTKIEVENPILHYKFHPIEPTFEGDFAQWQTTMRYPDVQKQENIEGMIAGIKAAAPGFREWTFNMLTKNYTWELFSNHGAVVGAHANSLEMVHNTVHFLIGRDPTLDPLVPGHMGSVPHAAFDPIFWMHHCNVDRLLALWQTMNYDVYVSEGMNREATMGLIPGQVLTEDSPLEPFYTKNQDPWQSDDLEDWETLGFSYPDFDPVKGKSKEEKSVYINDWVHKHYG
Description: Isobologram / interaction index analysis of ScyM and KA. The format is biochemical, A. bisporus. Conditions: single compounds, determined again for the isobologram; read-out: IC50 (another round of dose-dependent assays).
Description: Based on the derived equation, γ=∑i=2ndi/Di , where Di represents the dose of an individual drug to achieve 50% efficacy when acting alone, and di represents the dose of each drug in the compound mixture when the combined drug achieves 50% efficacy. Accordingly, when the interactions between drugs are synergistic, additive, and antagonistic, the corresponding values of γ are <1, = 1, and >1, respectively. Therefore, the smaller the index value, the stronger the synergistic effect.

The target of series [7] is T1, mushroom tyrosinase (A. bisporus). Description: End-point colorimetric tyrosinase inhibition assay (broad screening). The format is biochemical. Conditions: within 20 minutes; 475 and 490 nm; blank with enzyme rises to ~0.100.
Description: Four types of assay wells were designated for each screening plate (see Supplementary Figure S2 for visualization), in which the following reaction mixtures were added: A [Blank Control with Enzyme] contains 2 μl of DMSO, 118 μl of prepared 0.067 M sodium phosphate buffer and 40 μl of tyrosinase (100 units/ml) in the same buffer; B [Blank Control without Enzyme] contains 2 μl of DMSO and 158 μl of 0.067 M sodium phosphate buffer; C [Testing Material with Enzyme] contains 2 μl of sample (1 mg/ml in DMSO), 118 μl of 0.067 M sodium phosphate buffer and 40 μl of tyrosinase (100 Units/mL) in the same buffer; D [Testing Material without Enzyme] contains 2 μl of sample (1 mg/ml in DMSO) and 158 μl of 0.067 M sodium phosphate buffer. Samples were tested in triplicate.
The final test sample concentration was 10 μg/ml, while the final DMSO concentrations for both negative controls and samples kept ≤1%. […] Forty-five seconds of shaking was performed by the instrument before the wells were read.
The percentage inhibition of the tyrosinase activity was calculated by the equation: % Inhibition = {[(A − B) − (C − D)]/(A − B)} × 100, where A, B, C and D are all OD values from the corresponding wells at the same time point. It reflects the inhibitory strength of the testing material by comparing to the blank condition where no inhibitor is added.
The nature of series [8]: Solubility of ScyM in the assay buffer system.
[9] abbreviates: mushroom tyrosinase, SD not given, ref Li et al., 2005.
Setting [10] is: mushroom tyrosinase, SD not given, ref Sheng et al., 2018.
Setting [11] is: mushroom tyrosinase, SD not given, ref Wu et al., 2013.
[12] abbreviates: mushroom tyrosinase, ref Paudel et al., 2019.

T2 sequence (C7FF04 1-392): as above
T1 sequence (C7FF04 1-392): as above

What is called IC50 is the concentration at which inhibition is half-maximal. `C=C[C@]1(O)CC(NC=O)=CC1=O` [Myrothenone A]: the IC50 in series [1] (setting [9]) was 6.6 µM.
Regarding `CC[C@H](C)[C@@H]1NC(=O)[C@H](Cc2ccc(O)cc2)N(C)C(=O)[C@H]([C@H](C)O)N2C(=O)[C@H](CC[C@H]2O)NC(=O)[C@H](CC(C)C)NC(=O)[C@@H](NC(=O)[C@H](CCC(N)=O)NC(=O)[C@H](CCc2ccc(O)cc2)NC(=O)[C@H](O)CO)[C@@H](C)OC1=O` [oscillapeptin G], the 50% inhibitory concentration (IC50) in [1] (tyrosinase, post-conversion, ref Sano and Kaya, 1996) is ~100 µM.
On to `O=C1C=C2CC3(O)COc4cc(O)ccc4C3=C2C=C1O` (stereo not drawn) [Brazilein], for which the IC50 in series [1] (mushroom tyrosinase, ref Hridya et al., 2015) is 21200 µM. Further, the Mechanism entry in series [1] (ref Hridya et al., 2015) was “Mixed”.
As to `Cc1ccc(C(C)C)c(OC(=O)/C=C/c2ccc(O)cc2)c1` [(E)-2-Isopropyl-5-methylphenyl-3-(4-hydroxyphenyl)acrylate], the IC50 in [1] (setting [10]) was 10.6 µM. Moreover, the Mechanism entry in series [1] (ref Sheng et al., 2018) is reported as “Mixed”.
Take `CC(=O)OC[C@]12[C@H](OC(C)=O)[C@H](O)C[C@H](C)[C@]1(OC(C)=O)[C@@H](OC(C)=O)[C@@H](C(C)(C)O)C[C@H]2OC(=O)c1ccccc1` [1β,5α,6α,14-Tetraacetoxy-9α-benzoyloxy-7β H-eudesman-2β,11-diol]: the IC50 in series [1] (setting [11]) was 14.8 µM.
As to `O=c1cc(-c2ccccc2)oc2cc(O)c(O)c(O)c12` [Baicalein], the IC50 in [1] (mushroom tyrosinase, SD not given, ref Guo et al., 2018) was 110 µM. Besides, in series [1] (ref Guo et al., 2018), the Mechanism result is on record as “Mixed”.
As to `CCCCCc1cccc(=O)o1` [6-n-Pentyl-α-pyrone], the IC50 in series [1] (setting [9]) is 0.8 µM.
In general, melting point refers to the temperature, or range, at which the solid turns liquid. Consider `O=C1Cc2c([nH]c3ccccc23)/C1=C\c1ccc(O)cc1` (hydrate or solvate) [ScyM, scytonemin monomer], for which the melting point was > 210 °C.
As to `COc1ccc(/C=C/C(=O)Oc2cc(OC)ccc2C(C)=O)cc1` [(E)-2-Acetyl-5-methoxyphenyl-3-(4-methoxyphenyl)acrylate], the 50% inhibitory concentration (IC50) in [1] (setting [10]) was 8.3 µM. Also, the Mechanism entry in [1] (ref Sheng et al., 2018) is “Mixed”.
Take scytonemin: the “tyrosinase inhibition in dose-dependent assay” value in series [2] (all concentrations tested, from 1 up to 200 μM) is “almost no inhibition”. Further, in [3], the cytotoxicity entry is recorded as “non-cytotoxic”.
Turning to `CC(=O)O[C@@]12C[C@@H](C(C)(C)O)C[C@@H](OC(=O)c3ccccc3)[C@@]1(CO)[C@H](O)[C@H](O)C[C@@]2(C)OC(C)=O` [4α,5α-Diacetoxy-9α-benzoyloxy-7βH-eudesman-1β,2β,11, 14-tetraol], the IC50 in series [1] (setting [11]) was 22.3 µM.
Broadly, the inhibition is the relative decrease from the control value, in per cent. For `COc1ccc(/C=C2/C(=O)Cc3c2[nH]c2ccccc32)cc1` [ScyM-OMe, O-Methyl Scytonemin Monomer], the inhibition at 35 µM in [2] (35 μM) was ~1%.
For the molecule `O=C1Cc2c([nH]c3ccccc23)/C1=C\c1ccc(O)cc1` [ScyM, scytonemin monomer], the values for the IC50 in series [2] and in series [6] were 4.9 ± 0.3 µM and 4.7 µM, respectively. The inhibition at 25 µM in series [2] (read-out: inhibition by crude ScyM) is ~60%. Also, in series [2] (read-out: inhibition by purified ScyM), the inhibition at 10 µM was ~60%. Moreover, the Inhibition mode entry in [4] (Lineweaver-Burk plot, L-Dopa substrate) is recorded as “Mixed”. Further, the Mechanism entry in series [4] (Table 3, this experiment) was “Mixed”. In addition, in series [4] (apparent Vmax of tyrosinase with inhibitor, L-Dopa substrate, triplicate with SD), the “Vmax (OD·min^−1)” value was found to be 5.98 ± 0.52 OD·min^−1. Moreover, the cytotoxicity result in [5] is on record as “non-cytotoxic”. Moreover, in [7], the “OD reading with tyrosinase enzyme” value was ~ 0.080. For the same molecule, the “saturation point in the assay system” value in series [8] (0.067 M sodium phosphate buffer, ≤1% DMSO, precipitate seen at 75, 150 and 200 μM) is recorded as “less than 75 μM”. In addition, the “dissolution in the assay buffer system” value in series [8] (range of 0–10 μM) is “fully dissolves with no precipitate”.
With `O=C(O)c1cccc(-c2ccccc2)c1` [3-Phenylbenzoic acid (3-PBA), 3-Phenylbenzoic acid], the IC50 in series [1] (mushroom tyrosinase, SD not given, ref Oyama et al., 2016) was 36.3 µM. Besides, in series [1] (ref Oyama et al., 2016), the Mechanism entry is listed as “Mixed”.
As for `O=C(O)c1ccc(C(=O)O)cc1` [Terephthalic acid], in series [1] (mushroom tyrosinase, ref Yin et al., 2011), the IC50 was 26600 µM. Besides, in series [1] (ref Yin et al., 2011), the Mechanism result is recorded as “Mixed”.
In the case of “Bis-(2,3,6-tribromo-4,5-dihydroxybenzyl methyl ether”, the IC50 in series [1] (setting [12]) is 111 ± 4.95 µM. For the same molecule, the Mechanism result in [1] (ref Paudel et al., 2019) was “Competitive”.
Take `OCCc1c(Br)c(O)c(O)c(Br)c1Br` [2,3,6-Tribromo-4,5-dihydroxybenzyl methyl alcohol]: the IC50 in series [1] (setting [12]) was 270.5 ± 2.04 µM. Further, the Mechanism result in series [1] (ref Paudel et al., 2019) is on record as “Competitive”.
